From ChEMBL document CHEMBL3822451, “Structure-based design and synthesis of small molecular inhibitors disturbing the interaction of MLL1-WDR5” (Eur J Med Chem, 2016)

These compounds were tested against T1, WD repeat-containing protein 5 (Homo sapiens, UniProt P61964) (assay: Binding affinity to His-tagged human WDR5 expressed in Escherichia coli by isothermal titration calorimetry).

`Cc1c(F)ccc(C(=O)Nc2cc(-c3ccncc3)ccc2N2CCN(C)CC2)c1Cl` showed a Kd of 132 nM.

Each compound was assayed against T1, WD repeat-containing protein 5 (assay: Inhibition of 10mer-Thr-FAM probe binding to His-tagged human WDR5 expressed in Escherichia coli incubated for 2 hrs by fluorescence polarization assay).

`COc1cccc(NC(=O)c2cc([N+](=O)[O-])ccc2N2CCN(C)CC2)c1` and `CN1CCN(c2ccc([N+](=O)[O-])cc2C(=O)Nc2ccccc2Cl)CC1` cannot be ordered by IC50: over 20 µM for the first, over 20 µM for the second.

`COc1ccc(S(=O)(=O)Nc2cc([N+](=O)[O-])ccc2N2CCN(C)CC2)cc1OC` and `COc1ccc(S(=O)(=O)Nc2cc([N+](=O)[O-])ccc2N2CCN(C)CC2)cc1` cannot be ordered by IC50: over 20 µM for the first, over 20 µM for the second.

First: Cc1c(F)ccc(C(=O)Nc2cc(-c3ccc(N)cc3)ccc2N2CCN(C)CC2)c1Cl
Second: Cc1c(F)ccc(C(=O)Nc2ccc(-c3ccc(N)cc3)cc2N2CCN(C)CC2)c1Cl
The IC50 of the first is lower: 0.206 µM for the first, over 20 µM for the second. The first is the more potent here.

Going from `Cc1c(F)ccc(C(=O)Nc2cc(N)ccc2N2CCN(C)CC2)c1Cl` to `Cc1c(F)ccc(C(=O)Nc2cc(-c3ccncc3)ccc2N2CCN(C)CC2)c1Cl`, the IC50 falls from over 20 µM to 0.104 µM. The second is the more potent here.

`Cc1c(F)ccc(C(=O)Nc2ccc(-c3ccc(C(=O)O)cc3)cc2N2CCN(C)CC2)c1Cl` and `Cc1c(F)ccc(C(=O)Nc2ccc(-c3ccc([N+](=O)[O-])cc3)cc2N2CCN(C)CC2)c1Cl` cannot be ordered by IC50: over 20 µM for the first, over 20 µM for the second.

`CN1CCN(c2ccc([N+](=O)[O-])cc2NS(=O)(=O)c2ccc(F)cc2)CC1` and `Cc1cc(C)c(S(=O)(=O)Nc2cc([N+](=O)[O-])ccc2N2CCN(C)CC2)c(C)c1` cannot be ordered by IC50: over 20 µM for the first, over 20 µM for the second.

Going from `Cc1c(F)ccc(C(=O)Nc2ccc(-c3ccncc3)cc2N2CCN(C)CC2)c1Cl` to `Cc1c(F)ccc(C(=O)Nc2cc(-c3ccccc3)ccc2N2CCN(C)CC2)c1Cl`, the IC50 falls from over 20 µM to 0.466 µM.

First: Cc1c(F)c([N+](=O)[O-])cc(C(=O)Nc2cc(-c3ccccc3)ccc2N2CCN(C)CC2)c1Cl
Second: CN1CCN(c2ccc([N+](=O)[O-])cc2C(=O)Nc2ccc(F)cc2F)CC1
The IC50 of the first is lower: 0.207 µM for the first, over 20 µM for the second.
